This is an account of results in patent US5130327A, “Indole derivatives” (Consejo Superior de Investigaciones Cientificas, priority 1989, dated 1992).

SMILES strings stand for the structures.

In general, IC50 refers to the concentration needed to halve the response being measured.

The target of data set [1] is T1, Bovine Brain MAO A (Bos taurus, UniProt P21398).
T1 construct: in vitro activity of MAO from bovine brain mitochondria; from tissue; host or cells: bovine brain mitochondria
T1 sequence (P21398 1-527): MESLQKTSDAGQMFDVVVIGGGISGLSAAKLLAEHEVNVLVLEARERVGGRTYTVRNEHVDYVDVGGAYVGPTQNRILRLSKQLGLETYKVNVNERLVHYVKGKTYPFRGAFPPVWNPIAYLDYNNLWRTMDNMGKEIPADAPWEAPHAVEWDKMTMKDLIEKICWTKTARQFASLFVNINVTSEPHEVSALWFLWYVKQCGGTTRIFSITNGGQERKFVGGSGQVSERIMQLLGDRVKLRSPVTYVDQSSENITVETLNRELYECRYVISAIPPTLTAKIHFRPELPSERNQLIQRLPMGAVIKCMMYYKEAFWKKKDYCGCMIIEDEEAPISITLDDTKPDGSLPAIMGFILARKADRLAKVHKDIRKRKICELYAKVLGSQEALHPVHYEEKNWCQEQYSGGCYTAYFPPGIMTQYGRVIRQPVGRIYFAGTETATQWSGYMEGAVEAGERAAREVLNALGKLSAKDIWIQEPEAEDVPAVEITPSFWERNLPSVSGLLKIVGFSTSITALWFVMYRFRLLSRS
Description: In vitro inhibition of MAO from bovine brain mitochondria, tyramine as substrate (form A). To be noted: pI50 = -log [I50], molar. In kind it is biochemical. The text has this:
(§1) The following table illustrates the structure of particular compounds of the invention (1). It also gives specific pI50 values where pI50 =-log [I50 ] where [I50 ] is the molar concentration of test compound which inhibits 50% of the in vitro activity of MAO from bovine brain mitochondria using tyramine as substrate.

Data set [2] concerns the target T2, Bovine Brain MAO B (Bos taurus, UniProt P56560).
T2 construct: in vitro activity of MAO from bovine brain mitochondria; from tissue; host or cells: bovine brain mitochondria
T2 sequence (P56560 1-520): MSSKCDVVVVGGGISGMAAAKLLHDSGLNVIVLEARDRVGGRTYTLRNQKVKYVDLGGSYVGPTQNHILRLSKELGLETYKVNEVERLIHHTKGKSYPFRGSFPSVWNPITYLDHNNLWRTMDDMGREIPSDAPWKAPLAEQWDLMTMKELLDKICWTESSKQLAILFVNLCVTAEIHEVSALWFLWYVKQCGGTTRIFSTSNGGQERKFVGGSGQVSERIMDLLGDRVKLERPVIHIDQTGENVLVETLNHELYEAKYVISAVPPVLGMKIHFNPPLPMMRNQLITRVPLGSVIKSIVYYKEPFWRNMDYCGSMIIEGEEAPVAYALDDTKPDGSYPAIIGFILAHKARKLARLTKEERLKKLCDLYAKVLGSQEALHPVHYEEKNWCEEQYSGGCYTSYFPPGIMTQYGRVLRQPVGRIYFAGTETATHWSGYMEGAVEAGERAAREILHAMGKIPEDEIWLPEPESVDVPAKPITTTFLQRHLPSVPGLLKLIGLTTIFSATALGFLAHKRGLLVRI
Description: In vitro inhibition of MAO from bovine brain mitochondria, tyramine as substrate (form B). In kind it is biochemical. Also noted: key to Bovine Brain MAO, mark printed in place of a B value (nonselective): ns = nonselective.
Text: as §1

Data set [3] relates to rat uterus. As to conditions: Arch. Int. Pharmacodyn. 1961, 133, 138-158; cited from earlier work.
Data set [4] relates to rat cerebral MAO A and B. As to the kind of experiment: MAO inhibitory activity at the biochemical level (reversibility and selectivity). An excerpt:
To determine MAO inhibitory activity at the biochemical level the following tests are used:
1. "In vitro inhibition" of rat cerebral MAO A and B giving I50 values for the two forms of the enzyme. Male Wistar rats (200 g) were used. Brains were obtained by decapitation and were homogenized. As substrates of the enzymes ^14 C-5-hydroxytryptamine oxalate 54 mCi/mmol and ^14 C-β-phenylethylamine were used. The residual enzymatic activities were referred to the activities in absence of MAO inhibitor (100%).
2. "Ex vivo inhibition" of rat cerebral MAO A and B after single dosing.
This gives the degree of inhibition in vivo of both forms of the enzyme and variation of this inhibition with time after treatment with a single dose. The compounds were administered intraperitoneally to male Wistar rats (175 g.) at a dose of 5 mg/kg in 1 ml/kg (H2 O). Animals were sacrificed by decapitation 24 h. and 7 days after treatment and brains were removed and homogenized. Enzymatic activities determined in treated animals, were compared with the activities in control animals (100%).
3. "Ex vivo" inhibition of rat cerebral MAO A and B after repeated dosing.
Male Wistar rats (175 g) were used.
The compounds were administered once daily intraperitonally for 7 days at a dose of 0.5 and 1 mg/kg in 1 ml/kg […]. […]

Data set [5] has as its system reuptake of noradrenaline. Description: Reuptake of noradrenaline in vitro, crude synaptosomal preparation. In kind it is biochemical, rat. Here is the method:
Influence on the reuptake of monoamines "in vitro" was also studied. The effect of the compounds on the reuptake of 5-HT noradrenaline and dopamine was studied using Wistar male rats (350±2.5 g). They were kept under controlled light and temperature conditions and fed "ad libitum" until killed. The animals were killed by decapitation and brains were frozen and stored at -20° C. prior to analysis. Brains were dissected on an ice-filled petri dish. The cortices for 5-HT and noradrenaline assay and striatum (including caudate nucleus, putamen and globus pallidus) for dopamine assay were immediately weighed and homogenized. The standard incubation medium contained: 1.7 μM ^14 C-5-HT); 0.5μM ^3 H-noradrenaline or 1 μM ^3 H-dopamine with 0.1 ml of the crude synaptosomal preparation. All drugs used in the study were dissolved in the incubation medium in a concentration range 10^-4 to 10^-8 M and were preincubated with the crude synaptosomal preparation obtained from the treated brains, for 5 min. at 37° C. or 0° C. before the addition of the labelled substrate.

Data set [6] has as its system cerebral β-adrenergic receptors. As to the kind of experiment: Effects of chronic treatment on β receptors. It counts as in vivo. As to conditions: chronic administration in the rat. Here is the method:
Effects of chronic treatment on α2 -, β- and 5-HT2 receptors. The test compounds, at a dose of 10 mg/kg/day i.p., were administered for 21 days to Wistar male rats (250±2.4 g). After treatment the animals were killed, brains were dissected and cortices were scraped from the dorsal surface of the […]. ^3 H UK 14304, ^3 H Dihydroalprenalol and ^3 H Ketanserin were used as ligands in the binding studies.

Data set [7] in a line: Behavioural Despair (Porsolt's test). In kind it is in vivo. To be noted: acute treatment; read-out: Porsolt's test MED, acute. Here is the method: The pharmacological profile was carried out assessing the antidepressant activity with the following tests:
Behavioural Despair (Porsolt et al. Arch. Int. Pharmacodyn; 229:327-336, 1977),

Data set [8] is described as follows: Interaction with clonidine-induced hypoactivity. It counts as in vivo. The text has this:
(§2) The action mechanism was studied in acute and chronic treatments on the interaction response with clonidine, salbutamol (Richard, J. Intern. J. Neuroscience, 9:17-19, 1979) and tetrabenazine (Pletscher, A.: An. N.Y. Aca. Sci. 80:1039-1045, 1959), and the response to the potentiation with L-dopa, L-tryptophan, tryptamine (Jalfre, M. et al., Arch. Int. Pharmacodyn, 159:194-221, 1982) and β-phenylethylamine (Ortmann, et al, Psychopharmacol. 84:22-27, 1984).

Data set [9] in a line: Interaction with salbutamol-induced hypoactivity. It counts as in vivo.
Text: as §2

A short description of data set [10]: Potentiation of 5-HT. In kind it is in vivo. As to conditions: in vivo.
Data set [11] can be described thus: Potentiation of β-phenylethylamine. It counts as in vivo. As to conditions: in vivo.
Text: as §2

The nature of data set [12]: "Cheese effect" by tyramine potentiation. To be noted: in vivo. How it is done:
(§3) The secondary effects were studied mainly on the cardiovascular system, and the effects on the arterial pressure, heart rate and rhythm, P-R interval and isolated organ (rabbit aortic rings and isolated atria), were evaluated both after acute and chronic treatments. In the same way, the "cheese effect" was studied by means of the tyramine potentiation.

Data set [13] can be described thus: Secondary effects on the cardiovascular system. To be noted: in vivo. How it is done: as §3

In the case of `CNCc1cc2cc(OC)ccc2[nH]1` [(t), N-methyl-2-(5-methoxy-indolyl)methylamine], the 50% inhibitory concentration (IC50) is not below 100 µM in data set [1] and more than 100 µM in data set [2] (pI50 = -log [I50], molar, bovine brain mitochondria, tyramine as substrate). For the same compound, the “Antagonistic activity on the rat uterus” value in [3] is reported as “a weak unspecific antagonistic activity”.

`COc1ccc2[nH]c(CN)cc2c1` [(s), 2-(5-methoxy-indolyl)methylamine] had an IC50 in data set [1] of 50.1 µM. Besides, in data set [2] (one pI50 given, no separate A and B values), the “Bovine Brain MAO, mark printed in place of a B value (nonselective)” value is recorded as “ns”. Besides, the “Type of MAO inhibition (reversibility, selectivity)” value in data set [4] was “reversible and mixed inhibitor of MAO”. Further, the “Effect on the reuptake of noradrenaline” value in data set [5] is reported as “does not affect”. Besides, the “Number or affinity of cerebral β-adrenergic receptors” value in [6] is listed as “does not modify”. The minimal effective dose in data set [7] was found to be 25 mg/kg. Moreover, in data set [8] (acute (10.2 mg/kg)), the “Clonidine-induced hypoactivity, acute” value is given as “no action”. Moreover, the “Clonidine-induced hypoactivity, chronic” value in [8] (chronic treatment (10.2 mg/kg) during 5 days) was “no action”. The “Hypoactivity induced by salbutamol, acute” value in data set [9] (acute treatment) is reported as “does not do so”. In [9] (chronic treatment (10.2 mg/kg)), the “Hypoactivity induced by salbutamol, chronic” value is on record as “counteracts”. Moreover, in [10], the “Activity in test of potentiation of 5-HT” value is “inactive”. Further, the “Activity in test of potentiation of β-phenylethylamine” value in data set [11] was “inactive”. For the same compound, the “"Cheese effect"” value in data set [12] was “no "cheese effect"”. Also, in data set [13], the Cardiovascular effects entry is recorded as “does not produce any significant cardiovascular effects”.
